Results: patent US11357759B2, “Composition including ADAM9 inhibitor and the use thereof” (China Medical University, priority 2017, dated 2022)

Key:
TC1 lung cancer cells = experiment: Metastatic lung tumor model (intravenous TC1), combination with cisplatin; type: in vivo, mice; conditions: ADAM9 inhibitor 4 mg/kg i.v., cisplatin 1.5 mg/kg i.p., twice a week for 4 weeks
Method: To investigate the synergistic effect of chemotherapy drugs and ADAM9 inhibitors, we measured the cytotoxicity of individual and combination of cisplatin and 12W0271 for 3 days in TC1 cells by MTT. […] ADAM9 inhibitor (4 mg/kg) was intravenous injected twice a week for 4 weeks and cisplatin (1.5 mg/kg) was intraperitoneal injected twice a week for 4 weeks.

recombinant human ADAM9 = biological target: T1, recombinant human ADAM9 (Homo sapiens, UniProt Q13443); experiment: ADAM9 enzymatic activity, ELISA system with fluorogenic peptide substrate; type: biochemical
T1 construct: purchased R&D system
T1 sequence (Q13443 29-819): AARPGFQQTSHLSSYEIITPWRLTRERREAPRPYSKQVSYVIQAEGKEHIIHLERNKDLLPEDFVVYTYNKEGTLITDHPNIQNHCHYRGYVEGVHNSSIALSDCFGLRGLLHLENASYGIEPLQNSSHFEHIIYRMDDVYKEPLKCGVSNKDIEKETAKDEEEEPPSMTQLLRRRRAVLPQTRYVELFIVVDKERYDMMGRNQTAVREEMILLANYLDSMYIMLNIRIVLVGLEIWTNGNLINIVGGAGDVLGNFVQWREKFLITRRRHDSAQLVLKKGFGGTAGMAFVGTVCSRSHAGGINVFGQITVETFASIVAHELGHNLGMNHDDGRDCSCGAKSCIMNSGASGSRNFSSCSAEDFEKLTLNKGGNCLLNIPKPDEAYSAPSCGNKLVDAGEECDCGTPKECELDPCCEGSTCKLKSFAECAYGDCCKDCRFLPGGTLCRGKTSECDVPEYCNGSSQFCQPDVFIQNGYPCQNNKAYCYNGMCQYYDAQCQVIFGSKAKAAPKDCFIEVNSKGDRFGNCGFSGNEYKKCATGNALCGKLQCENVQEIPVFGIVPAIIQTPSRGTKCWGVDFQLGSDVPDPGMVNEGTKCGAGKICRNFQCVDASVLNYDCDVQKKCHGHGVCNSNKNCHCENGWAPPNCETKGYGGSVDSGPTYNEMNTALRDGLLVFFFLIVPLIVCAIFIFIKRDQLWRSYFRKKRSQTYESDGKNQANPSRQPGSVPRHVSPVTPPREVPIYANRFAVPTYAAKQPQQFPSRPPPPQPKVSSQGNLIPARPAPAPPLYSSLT
Method: To measure the efficacy of ADAM9 inhibitors in suppression of ADAM9 enzymatic activity, we established an ELISA system using recombinant human ADAM9 and a fluorogenic peptide substrate (R&D system). Broad-spectrum metalloprotease inhibitor BB-94 was included as a positive control. […] To evaluate the specificity of ADAM9 inhibitors, we performed a migration inhibition assay in control (shGFP) and ADAM9 knockdown (shADAM9) lung cancer cells in the presence of 25 μM of each compound. […] To ensure the generality of the compounds in blocking anoikis-resistance of cancer cells, we determined the IC50 of representative compounds for anoikis (anchorage-free induced apoptosis) in cancer cell lines and leukocytes in anchorage-free culture conditions. […] Plating efficiency of Bm7 treated with 20 μM ADAM9 inhibitor and TC1 cells treated with 10 μM ADAM9 inhibitor was shown. Control and ADAM9 knockout (KO) TC1 cells were treated with ADAM9 inhibitor for 24 hours and then stained with annexin V and PI. The apoptotic cells (Annexin V positive cells) are indicated as the percentage of gated cells from three independent experiments with mean±SD.

ADAM17 = ADAM17 (Homo sapiens, UniProt P78536); experiment: ADAM17 inhibition; type: biochemical
Sequence of ADAM17 (P78536 215-824, species assumed): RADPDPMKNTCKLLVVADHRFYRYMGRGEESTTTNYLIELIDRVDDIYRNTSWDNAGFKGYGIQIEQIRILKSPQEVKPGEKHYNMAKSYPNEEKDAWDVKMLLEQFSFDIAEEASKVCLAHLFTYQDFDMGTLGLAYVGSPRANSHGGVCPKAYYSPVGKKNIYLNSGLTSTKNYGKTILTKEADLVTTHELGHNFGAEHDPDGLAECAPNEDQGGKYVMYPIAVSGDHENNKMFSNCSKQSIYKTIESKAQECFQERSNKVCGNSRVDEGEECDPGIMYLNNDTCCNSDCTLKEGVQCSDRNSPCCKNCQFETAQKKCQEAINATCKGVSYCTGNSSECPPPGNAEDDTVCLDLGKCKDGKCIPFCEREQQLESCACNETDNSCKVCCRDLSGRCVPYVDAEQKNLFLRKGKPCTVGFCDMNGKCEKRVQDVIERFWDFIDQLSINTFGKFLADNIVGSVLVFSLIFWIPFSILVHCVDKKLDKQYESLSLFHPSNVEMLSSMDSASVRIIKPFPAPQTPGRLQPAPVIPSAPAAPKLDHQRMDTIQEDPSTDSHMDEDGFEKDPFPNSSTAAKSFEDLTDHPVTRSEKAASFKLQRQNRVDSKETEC

[1] = system: lung cancer cells in suspension culture; experiment: Cytotoxicity of lung cancer cells in suspension culture; type: cell-based
Excerpt: The representative derivatives can reduce CDCP1 expression.

4T1-luc cells = experiment: 4T1-luc breast tumor model, adjuvant therapy after surgery; type: in vivo; conditions: for mice with no relapse: adjuvant after surgery, 12W0271 10 mg/kg s.c. (over 333 days), doxorubicin 1 mg/kg i.p., 12 times
Method: To compare the therapeutic effect of the inhibitors to chemotherapy agent doxorubicin in breast cancer treatment, we treated mice with 12W0271 or doxorubicin as adjuvant therapy after surgery of primary breast tumors. Balb/c mice received mammary fat pad injection of 5×10^4 4T1-luc cells. ADAM9 inhibitor was subcutaneously injected at 10 mg/kg once a day, 5 times per week for total 12 times. Doxorubicin was intraperitoneally injected at 1 mg/kg, once a day, 5 times per week for total 12 times. […] This breast tumor animal model is a clinically relevant triple negative breast cancer with poor outcome. In doxorubicin treatment, only one mouse (12.5%) had complete response with no relapse. Body weight of survived mice in doxorubicin and 12W0271 groups was determined on day 140. Dash line indicates average body weight in normal mice.

Structure (SMILES) | survival time (TC1 lung cancer cells) | ADAM9 activity (recombinant human ADAM9) | inhibitory effects in ADAM17 (ADAM17) | IC50 for the cytotoxicity of lung cancer cells, compared to compound 310 [1] | mice with no relapse (4T1-luc cells) | condition and body size of survived mice (4T1-luc cells; long term, 10 mg/kg s.c.)
N.N.[Cl][Pt][Cl] [cisplatin] | significantly prolonged survival time | – | – | – | – | –
O=C(Nc1nc(CCN2C(=O)c3ccccc3C2=O)cs1)c1cc2ccccc2s1 [6X-0214] | – | decreased ADAM9 activity to a similar extent in a dose-dependent manner | no inhibitory effects | strongly reduced the IC50 | – | –
O=C1c2ccccc2C(=O)N1CCc1csc(Nc2nc(CCN3C(=O)c4ccccc4C3=O)cs2)n1 [12W-0271] | – | decreased ADAM9 activity to a similar extent in a dose-dependent manner | no inhibitory effects | strongly reduced the IC50 | 37.5% | healthy condition with bigger body size than the survival one in doxorubicin group
COc1cccc2c1C(=O)c1c(O)c3c(c(O)c1C2=O)C[C@@](O)(C(=O)CO)C[C@@H]3O[C@H]1C[C@H](N)[C@H](O)[C@H](C)O1 [doxorubicin, reference compound] | – | – | – | – | 12.5% | –
